Laboratory results from patent publication US20040214799A1, “Cancerous metastasis inhibitors containing carbacyclic phosphatidic acid derivatives” (priority 2001, published 2004).

Legend:
MM1 cells [1] = test: In vitro invasion assay, LPA-induced invasion of MM1 cells across mesothelial cell monolayer; assay type: cell-based, rat; details: 25 μM LPA; for invasion suppressing activity on LPA-induced invasion, carba-cPA at low concentration (in words): 0.5 μM, 1 μM or 10 μM carba-cPA
Protocol: The abdomen of a male DONRYU rat (300 g, NIPPON BIO-SUPP. CENTER) was opened aseptically. The thus obtained mesenterium was treated with 0.25% trypsin at 37° C. for 15 minutes, filtrated with a 150 μm stainless mesh, and then centrifuged to collect mesothelial cells. The cells were cultured under conditions of 37° C. and 5% CO2 in a medium which was obtained by adding 10% FBS to Eagle's MEMI (Nissui) supplemented with Eagle's MEM amino acid vitamin medium (Nissui) in a volume twice as great as that of the MEMI. A mesothelial cell monolayer which had reached a confluent density after 1 week of culturing was used for invasion assay.
The MM1 cells, which are highly invasive clones of rat ascites hepatoma cells (AH-130), were established by Mukai et al., (Int. J. Cancer : 81, 918-922 (1999)), and was cultured under the same conditions as those for mesothelial cells.
In vitro invasion assay was developed by Akedo et al (Akedo, H et al., Cancer Res. 46, 2416-2422 (1986)). MM1 cells were multi-layer-cultured on the mesothelial cell layer, which had been grown to reach a confluent density, in the presence of 10% FBS or 25 μM LPA (SIGMA). 25 μM cPA was then added. The cells were cultured under conditions of 37° C. and 5% CO2 for 20 hours, and then fixed with 10% formalin. The number of colonies of MM1 cells that had invaded was counted under a phase-contrast microscope (FIG. 3).
cPA and LPA were ice-cooled in PBS containing 0.1% fatty-acid free BSA (SIGMA), ultrasonicated, emulsified, stored at −20° C., and then used.
0.5 μM, 1 μM and 10 μM carba-cPA were added to MM1 cells, and then in vitro invasion assay was performed similarly to (1-1) in the presence of 25 μM LPA.
The following reagents were respectively added to an in vitro invasion assay system so as to examine their effects on MM1 cell invasion in the presence of 25 μM LPA: Forskolin (Wako) which directly activates adenylate cyclase (cAMP synthase); cholera toxin (CTX) (GIBCO BRL) which prevent the deactivation of G protein (Gs) which activates adenylate cyclase; Bt2cAMP (nacalai tesque) which can pass through the membrane and functions in a manner similar to that of cAMP when it enters the cell; or isobutylmethylxanthine (IBMX, 3-isobutyl-1-methylxanthine) (SIGMA) which inhibits phosphodiesterase (cAMP degrading enzyme).

MM1 cells [2] = test: Effect on the proliferation of MM1 cells; assay type: cell-based, rat; details: 12.5 μM or 25 μM cPA, 10% FBS, 24 hours and 72 hours
Protocol: 12.5 μM and 25 μM cPA were added to media containing 10% FBS, and then the cells were cultured under conditions of 37° C. and 5% CO2 for 24 hours and 72 hours. The number of the MM1 cells was counted using a hemocytometer.

[3] = General state and body weight of B16-F0 melanoma-bearing mice; assay type: in vivo; details: for Body weight (g) day 0: day 0, mean ± S.D.; for Body weight (g) day 0 / Body weight (g) day 4 / Body weight (g) day 7 / Body weight (g) day 11 / Body weight (g) day 14: N 6; for Body weight (g) day 4: day 4, mean ± S.D.; for Body weight (g) day 7: day 7, mean ± S.D.; for Body weight (g) day 11: day 11, mean ± S.D.; for Body weight (g) day 14: day 14, mean ± S.D.; for body weight compared with the medium group at each measurement (in words): days 0, 4, 7, 11, 14; for effect on changes in body weight (in words): 0.001-0.008 mg/body i.v., days 0 to 14
Protocol: The mixture was administered via the caudal vein. The number of grafted cells was 5×10^5 cells/body. The dose of the test substance was 0.001, 0.004 or 0.008 mg/body, and the dose of the positive control substance was 0.008 mg/body.
Observation period ranged from days 0 to 14 after the administration of the test substance. Life and death were confirmed every day during this period, and the general state was observed. Body weight measurement was performed twice a week.
The representative value of each test group was denoted as mean±standard deviation (mean±S.D.). Differences in mean values were examined as follows. The number of metastatic nodules was examined by Dunnett's multiple comparison test between the medium group and the cPA-19 group, and between the medium group and the cPA-20 group. The same was examined by the Student's T-test between the medium group and cPA-5 group. The number of metastatic lesions was examined by the Wilcoxon test using the medium group as a control. The number of animals having metastatic nodules or metastatic lesions was examined by Fisher's extract probability test using the medium group as a control. The significance levels were 1% and 5%.

Compound | suppression of LPA-induced invasion (in words) (MM1 cells [1]; 25 μM cPA derivative, 20 hours) | effect on MM1 cell proliferation (in words) (MM1 cells [2]) | Body weight (g) day 0 ([3]; 0.008 mg/body i.v.) [g] | Body weight (g) day 4 ([3]; 0.008 mg/body i.v.) [g] | Body weight (g) day 7 ([3]; 0.008 mg/body i.v.) [g] | Body weight (g) day 11 ([3]; 0.008 mg/body i.v.) [g] | Body weight (g) day 14 ([3]; 0.008 mg/body i.v.) [g] | body weight compared with the medium group at each measurement (in words) [3] | invasion suppressing activity on LPA-induced invasion, carba-cPA at low concentration (in words) (MM1 cells [1]) | Body weight (g) day 0 ([3]; 0.001 mg/body i.v.) [g] | Body weight (g) day 4 ([3]; 0.001 mg/body i.v.) [g] | Body weight (g) day 7 ([3]; 0.001 mg/body i.v.) [g] | Body weight (g) day 11 ([3]; 0.001 mg/body i.v.) [g] | Body weight (g) day 14 ([3]; 0.001 mg/body i.v.) [g] | Body weight (g) day 0 ([3]; 0.004 mg/body i.v.) [g] | Body weight (g) day 4 ([3]; 0.004 mg/body i.v.) [g] | Body weight (g) day 7 ([3]; 0.004 mg/body i.v.) [g] | Body weight (g) day 11 ([3]; 0.004 mg/body i.v.) [g] | Body weight (g) day 14 ([3]; 0.004 mg/body i.v.) [g] | effect on changes in body weight (in words) [3]
CCCCCCCCCCCCCCCC(=O)OC[C@@H]1COP(=O)(O)O1 [cPA-5, Pal-cPA, reference compound] | suppressed | no effect on MM1 cell proliferation | 15.9 ± 0.6 | 15.8 ± 0.9 | 16.2 ± 1.0 | 17.0 ± 0.8 | 17.4 ± 1.0 | no significant difference |  |  |  |  |  |  |  |  |  |  |  | 
carba-Ole-cPA [cPA-19] |  | showed proliferation suppressing activity | 15.9 ± 0.6 | 15.4 ± 0.5 | 15.9 ± 0.5 | 16.8 ± 0.5 | 17.0 ± 0.4 | no significant difference | stronger invasion suppressing activity than cPA-18 | 15.9 ± 0.6 | 15.5 ± 0.5 | 15.8 ± 0.7 | 16.5 ± 1.0 | 17.1 ± 1.2 | 15.9 ± 0.6 | 16.0 ± 0.5 | 16.1 ± 0.6 | 16.7 ± 0.6 | 17.6 ± 0.9 | no effect on changes in body weight
carba-ΔPal-cPA [cPA-20] |  | showed proliferation suppressing activity | 15.9 ± 0.5 | 16.1 ± 0.8 | 16.3 ± 0.8 | 17.0 ± 0.9 | 17.7 ± 0.8 | no significant difference | stronger invasion suppressing activity than cPA-18 | 15.9 ± 0.6 | 15.5 ± 0.3 | 16.1 ± 0.6 | 16.8 ± 0.4 | 17.4 ± 0.6 | 16.0 ± 0.6 | 16.0 ± 0.7 | 16.2 ± 0.6 | 16.9 ± 0.7 | 17.5 ± 0.8 | no effect on changes in body weight
